Experiment: Curcumin retention in curcumin-cyclodextrin inclusion complex solution left standing 10 days
Type: physicochemical
Conditions: 10 days at room temperature without shielding from light

SMILES	curcumin remained in the solution
OC[C@H]1O[C@@H]2O[C@H]3[C@H](O)[C@@H](O)[C@@H](O[C@H]4[C@H](O)[C@@H](O)[C@@H](O[C@H]5[C@H](O)[C@@H](O)[C@@H](O[C@H]6[C@H](O)[C@@H](O)[C@@H](O[C@H]7[C@H](O)[C@@H](O)[C@@H](O[C@H]1[C@H](O)[C@H]2O)O[C@@H]7CO)O[C@@H]6CO)O[C@@H]5CO)O[C@@H]4CO)O[C@@H]3CO [α-cyclodextrin]	36.83%
OC[C@H]1O[C@@H]2O[C@H]3[C@H](O)[C@@H](O)[C@@H](O[C@H]4[C@H](O)[C@@H](O)[C@@H](O[C@H]5[C@H](O)[C@@H](O)[C@@H](O[C@H]6[C@H](O)[C@@H](O)[C@@H](O[C@H]7[C@H](O)[C@@H](O)[C@@H](O[C@H]8[C@H](O)[C@@H](O)[C@@H](O[C@H]9[C@H](O)[C@@H](O)[C@@H](O[C@H]1[C@H](O)[C@H]2O)O[C@@H]9CO)O[C@@H]8CO)O[C@@H]7CO)O[C@@H]6CO)O[C@@H]5CO)O[C@@H]4CO)O[C@@H]3CO [γ-cyclodextrin]	21.94%
OC[C@H]1O[C@@H]2O[C@H]3[C@H](O)[C@@H](O)[C@@H](O[C@H]4[C@H](O)[C@@H](O)[C@@H](O[C@H]5[C@H](O)[C@@H](O)[C@@H](O[C@H]6[C@H](O)[C@@H](O)[C@@H](O[C@H]7[C@H](O)[C@@H](O)[C@@H](O[C@H]8[C@H](O)[C@@H](O)[C@@H](O[C@H]1[C@H](O)[C@H]2O)O[C@@H]8CO)O[C@@H]7CO)O[C@@H]6CO)O[C@@H]5CO)O[C@@H]4CO)O[C@@H]3CO [β-cyclodextrin]	32.30%

— US11840584B2, “Simple and green method for preparation of acid modified cyclodextrin” (priority 2020, dated 2023)
